Reference: US10696647B2, “Pharmacological treatment of obsessive-compulsive disorder” (BIOCODEX, priority 2013, dated 2020)
Where “and” joins values, the source holds several entries; their conditions need not be identical. Equal entries are not always repeated.

Columns and labels:
Assay type in all cases: in vivo, NMRI mice
[1] = test system: marble-burying behavior in mice; experiment: Marble-burying behavior in mice (model of obsessive-compulsive disorder); details: for number of marbles buried (at least 2/3 buried, counted after 30 min): vs vehicle; for dose at which the decrease in number of marbles buried reached significance: p<0.05 vs vehicle
Source text: Marble-burying behavior in the rodent is considered to be a model of obsessive-compulsive disorder (OCD) and is commonly used to assess the activity of candidate compounds in the prevention or treatment of OCD (Ishimaru et al. (1995) Jpn. J. Pharmacol. 68:65-70; Gaikwad & Parle (2010) Asian Journal of Pharmaceutical and Clinical Research 3:101-103; Prajapati et al. (2011) Pharmacognosy Res. 3:62-66). […] In addition, because the motor behavior can interfere with the burying behavior, the effects of stripentol in the rota rod test and spontaneous locomotion have been also evaluated.
(§1) Six-week old NMRI mice (30-32 g) were purchased from Janvier breeding (Le Genest-St Isle; France). Mice were housed ten per translucent polypropylene cage (internal dimensions; 37.5 cm×37.5 cm×[…], L×W×H) under standard laboratory conditions (22±2° C., 12-h light/dark cycle, lights on at 7:00 AM) with food (AO4, SAFE, France) and tap water available ad libitum. No less than one week of rest followed their arrival. All animal procedures were carried out in accordance with the European Community council directive of 24 of Nov. 1986 (86/609/EEC) for the care and use of laboratory animals and the French government guidelines (authorization C60-159-04—December, 2009).
Mice were habituated to the testing room at least 60 min before any behavioural evaluation. All tests took place between 9:00 AM and 3:00 PM unless otherwise stated. The behavioural tests were performed by different well-trained experimenters who were kept unaware of the treatment administered. All experiments were performed in a randomized manner.
The marble-burying behavior of mice was conducted according to the methodology of Njung'e and Handley (1991) Pharmacol Biochem Behav 1991; 38: 63-67. Briefly, each mouse was placed individually in a polycarbonate cage (Type S-River; 26.5×16×14 cm height) containing 20 clean glass marbles of diameter 1.5 cm evenly spaced on 5 cm deep sawdust. The cage-lid was a metal grid. No food or water was present. The marbles were cleaned with an alcohol solution (10%; v/v) between each animal. The number of marbles at least ⅔ buried was counted 30 min later.
These compounds were administered under a volume of 0.1 ml/10 g of body weight. Control animals received an equivalent volume of vehicle.
(§2) All data are expressed as mean±SEM. The number of marble buried, locomotor activity and the time spent on the rot rod were analyzed by one-way analyse of variance (ANOVA) or the Kruskall Wallis procedure followed post-hoc by the Dunnett's test or Dunn's method respectively to locate the differences between the treated groups and the vehicle group. Differences were considered statistically significant when p<0.05. Statistical tests were run using SigmaStat v3.5 (SPSS, inc, Chicago, Ill., USA).

[2] = test system: spontaneous locomotion; experiment: Spontaneous locomotor activity (distance travelled, rearings); details: up to 200 mg/kg i.p.; measured for 30 min
Method: as §1, with “2009). […]” for “2009).”
Testing occurred in a quiet room under a light level of approximately 400 lux. […] Locomotor activity and rearing were measured by vibrations analysis and the interruption of infra-red beams respectively (ActiV-Meter; Software BIO-ACTIV; Bioseb-Vitrolles-France). The distance travelled (in cm) and the number of rearings were measured for 30 min. […]
as §2, with “Differences were considered statistically significant when p<0.05. Statistical tests were run using SigmaStat v3.5 (SPSS, inc, Chicago, Ill., USA).” left out

[3] = test system: rotarod performance time; experiment: Rotarod test (motor performance and coordination); details: doses up to 200 mg/kg i.p.; 16 rpm, up to 120 s
Method: as §1
Mice were habituated to the testing room at least 60 min before any behavioural evaluation. […]
The rotarod test was performed in accordance with the teachings of Kohara et al. (2005) J Pharmacol Exp Ther 2005; 315: 163-169. […] In the drug evaluation session, rotarod performance time was measured three times, up to 120 s, and the mean was adopted as the performance time for each animal. […]
as §2, with “Differences were considered statistically significant when p<0.05. Statistical tests were run using SigmaStat v3.5 (SPSS, inc, Chicago, Ill., USA).” left out

Compound: CN(C)CCCN1c2ccccc2CCc2ccc(Cl)cc21 [clomipramine]
- number of marbles buried (at least 2/3 buried, counted after 30 min) ([1]; clomipramine 5-20 mg/kg i.p. 30 min before testing, H(3)=20.412, p<0.001): significantly reduced the number of marbles buried
- dose at which the decrease in number of marbles buried reached significance ([1]; clomipramine i.p. 30 min before testing): 10 mg/kg and 20 mg/kg

Compound: CC(C)(C)C(O)/C=C/c1ccc2c(c1)OCO2 (racemic) [stiripentol]
- distance travelled [2]: did not significantly modify the distance travelled
- number of rearings [2]: did not significantly impair the number of rearings
- time spent on the rota rod [3]: without any significant effect
- number of marbles buried (at least 2/3 buried, counted after 30 min) ([1]; stiripentol 100-200 mg/kg i.p. 60 min before testing, F(3.42)=5.425, p=0.003): dose-dependently decreased the number of marbles buried
- dose at which the decrease in number of marbles buried reached significance ([1]; stiripentol i.p. 60 min before testing): 200 mg/kg
